Source: publication PMC12314576, “The Actin‐Binding Prolyl‐Isomerase Par17 Sustains Its Substrate Selectivity by Interdomain Allostery” (Proteins, 2025)
Starred links: 1 amine or outer side, 2 acyl side, 3 side chain; linkers in the order of their positions; H or OH if unused. Residues, ends and D or L forms follow the SMILES beside them. *: point of attachment. pNA = O=[N+]([O-])c1ccc(N*)cc1; Suc = O=C(CCC(=O)[*:2])[*:1]

Legend:
Par17 [1] = target: T1, Par17 (Homo sapiens, UniProt Q9Y237); experiment: Protease-coupled isomerase assay (PPIase assay) with Par17; assay type: biochemical; details: PBS pH 6.8, 10°C, PPIase 2 μM; for k = kobserved - kthermic, Par17: α-chymotrypsin 35 μM, substrate 75 μM, absorbance 390 nm, mean ± SD
T1 construct: full‐length Par17 and the N‐terminus of Par17; GST-His6 (PreScission site) (N, cleaved yes); Gly-Pro remnant of the PreScission site (Gly stands at position 1 in place of Met1); made in house; host or cells: E. coli BL21 (DE3) T1r
T1 sequence (Q9Y237 1-156 isoform Q9Y237-2): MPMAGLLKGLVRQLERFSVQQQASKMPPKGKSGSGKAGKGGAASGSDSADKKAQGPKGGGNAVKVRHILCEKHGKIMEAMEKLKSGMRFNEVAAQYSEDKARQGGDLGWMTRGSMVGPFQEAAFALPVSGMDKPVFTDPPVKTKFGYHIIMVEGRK
Description: (§1) To determine the catalytic efficiency and substrate specificity of Par14 and Par17, we performed a protease‐coupled assay. In this assay, the trans form of a para‐nitroaniline (pNA) tagged model substrate is cleaved by chymotrypsin, and the resulting change in absorption at 390 nm due to free pNA is measured. When the model substrate is added to the protease‐containing buffer, all trans‐Xaa‐Pro isomers are immediately cleaved by chymotrypsin. Therefore, the extent of the first signal burst observed in the absorption spectrum correlates with the amount of trans isomers of the model substrate formed during the experimental dead time. The remaining cis‐Xaa substrates now start to isomerize by thermal (in the absence of PPIase) or catalytic reaction (in the presence of PPIase). The newly formed trans‐Xaa substrates are immediately cleaved, and isomerization can thus be monitored over time (Figure 2). Eighteen different substrate peptides with varying amino acids at the Xaa position (Suc‐Ala‐Xaa‐Pro‐Phe‐pNa) were measured to determine the isomerase activity and substrate selectivity of Par14 (Par17Δ1–25), Par17, and the catalytic domain (Par17Δ1–60) (Table S1). The catalytic efficiency is obtained from the observed isomerization curves by calculating the difference between the rate constant in the presence of enzyme and the rate constant obtained from thermal isomerization.
(§2) We determined the isomerase activity using the PPIase assay described by. The lyophilized peptides were dissolved in an adequate volume of 0.5 mM‐LiCl/TFE buffer to obtain a 15 mM stock solution. To achieve a stable cis/trans ratio the mixture was incubated overnight at 4°C. The next day a stock solution of 350 μM α‐chymotrypsin in PBS was incubated on ice for at least 20 min. For measurements without PPIase PBS buffer (pH 6.8) was mixed with α‐chymotrypsin to a final concentration of 35 μM in 1 mL. A baseline was recorded for 5 min (Cary 100Bio UV/Vis spectrophotometer, Varian/Agilent, Santa Clara, US, λ: 390 nm, bandwidth: 1.0 nm, average time between measurements: 0.5 s, temperature: 10°C). After 5 min the substrate peptide was added to a final concentration of 75 μM in 1 mL [59]. The solution was mixed by inverting the cuvette three times and the reaction was recorded for 15 min. Measurements in the presence of PPIase were performed in the same way, except that before the baseline measurement, the appropriate isomerase was added in a final concentration of 2 μM in 1 mL in addition to PBS and α‐chymotrypsin.
(§3) For the data analysis, a mean value of the baseline was subtracted (average of the first 200 data points). The measured values were normalized according to the respective maximum of the measurement. To determine the rate constant, the program graph pad was used, and non‐linear curve fitting was applied for each measurement (exponential, one‐phase association). (1) Y=Y0+Plateau−Y0∙1−e^−K∙x
(§4) where x is the time (min), Y is the absorbance, Y 0 is the absorbance when x = 0, Plateau is the Y value at infinite times, K is the rate constant (min^−1).
(§5) The K cat/K M value was calculated according to Equation (2): (2) kcat/KM=kobs−ktherm/PPIase where k cat/K M is the catalytic efficiency (M^−1 s^−1), k obs, rate constant of the observed reaction (s^−1), k therm is the rate constant of the thermic reaction (s^−1), and [PPIase] is the concentration of PPIase used in the assay (M).
(§6) The obtained data are fitted to Equation (2) using a pseudo first‐order assumption. This is the case, if k obs values behave linearly with rising PPIase concentrations.

Par14 (Par17Δ1-25) = target: T2, Par14 (Par17Δ1-25) (Homo sapiens, UniProt Q9Y237); experiment: Protease-coupled isomerase assay (PPIase assay) with Par14; assay type: biochemical; details: PBS pH 6.8, 10°C, PPIase 2 μM; for k = kobserved - kthermic, Par14 (Par17Δ1-25): α-chymotrypsin 35 μM, substrate 75 μM, absorbance 390 nm, mean ± SD
T2 construct: Comparison of spectra of full‐length parvulin proteins and PPIase domain; GST-His6 (PreScission site) (N, cleaved yes); made in house; host or cells: E. coli BL21 (DE3) T1r
T2 sequence (Q9Y237 whole entry, stated change not applied, the tested form may be a part): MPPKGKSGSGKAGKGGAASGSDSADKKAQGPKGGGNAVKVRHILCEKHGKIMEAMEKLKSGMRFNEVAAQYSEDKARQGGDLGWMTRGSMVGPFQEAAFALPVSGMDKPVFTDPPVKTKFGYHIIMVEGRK
Description: as §1, §2, §3, §4, §5, §6

[2] = target: T3, PPIase domain (Par17Δ1-60) (Homo sapiens, UniProt Q9Y237); experiment: Protease-coupled isomerase assay (PPIase assay) with the catalytic domain; assay type: biochemical; details: PBS pH 6.8, 10°C, PPIase 2 μM; for k = kobserved - kthermic, PPIase domain (Par17Δ1-60): α-chymotrypsin 35 μM, substrate 75 μM, absorbance 390 nm, mean ± SD
T3 construct: GST-His6 (PreScission site) (N, cleaved yes); made in house; host or cells: E. coli BL21 (DE3) T1r
T3 sequence (Q9Y237 36-131, stated change not applied): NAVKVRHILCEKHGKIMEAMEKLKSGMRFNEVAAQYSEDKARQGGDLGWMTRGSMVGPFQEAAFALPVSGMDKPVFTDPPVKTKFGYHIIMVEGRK
Description: as §1, §2, §3, §4, §5, §6

Par17 [3] = target: T1, Par17; experiment: NMR titration of substrate peptides to 15N-labeled full-length Par17; assay type: binding; details: 300 μM Par17, KPi pH 6.7, 20°C
Description: The amide signals were assigned and combined chemical shift changes between the signals of free and substrate‐bound isomers were calculated.
For NMR measurements, purified and concentrated proteins in salt‐free buffers were mixed with 10% D2O and 1 μL DSS standard. Spectra were measured on an ultra shield 700‐NMR (Bruker, Billerica, US) with a triple resonance cryoprobe (700 MHz). For recording and processing of data, the software Topspin 3.5 was used. Analysis of spectra was carried out using Cara analysis software 2.3.1 (Rochus L.J. Keller) and/or CcpNmr Analysis 2.3.1 (Department of Molecular and Cell Biology, University of Leicester, UK).
Titration of substrate peptides to ^ 15 N‐labeled full‐length Par17 and the N‐terminus of Par17: The following substrate peptides were diluted in salt‐free 50 mM KPi buffer pH 6.7 to a concentration of 15 mM (Suc: Succinyl, pNA: para‐Nitroanilin):
They were added stepwise to 200 μL of the labeled parvulins (300 μM in 50 mM KPi buffer pH 6.7). Spectra were recorded with the pulse program Best‐TROSY at 20°C. Combined chemical shifts were calculated as described. Microscopic dissociation constant K D was fitted with the following equation (assuming a 1:1 binding model): (4) ∆δ=∆δmax·P+x+KD−P+x+KD^2−4·x·P/2·P
where ∆δmax is the amplitude, P is the protein concentration, X is the concentration of the peptide.
Differences in chemical shift changes could be measured up to 0.001 ppm (error in peak picking). Changes were interpreted as significant if Δ > 0.004 ppm and when appearing consecutively in a linear sequence element.
The microscopic K D describes the binding affinity of the ligand to a single side of an amino acid.

[4] = Table ST1, (kobs−ktherm)/[PPIase]

Row | Compound | k = kobserved - kthermic, Par17 (Par17 [1]) [min⁻¹] | k = kobserved - kthermic, Par14 (Par17Δ1-25) (Par14 (Par17Δ1-25)) [min⁻¹] | k = kobserved - kthermic, PPIase domain (Par17Δ1-60) [2] [min⁻¹] | Combined chemical shift perturbation of full length Par17, 113G (Par17 [3]; peptide 3 mM) | Combined chemical shift perturbation of full length Par17, 115M (Par17 [3]; peptide 3 mM) | Combined chemical shift perturbation of full length Par17, 116V (Par17 [3]; peptide 3 mM) | Combined chemical shift perturbation of full length Par17, 119F (Par17 [3]; peptide 3 mM) | Combined chemical shift perturbation of full length Par17, 113G (Par17 [3]; peptide 0,35 mM) | Combined chemical shift perturbation of full length Par17, 116V (Par17 [3]; peptide 0,35 mM) | Combined chemical shift perturbation of full length Par17, 119F (Par17 [3]; peptide 0,35 mM) | Combined chemical shift perturbation of full length Par17, 113G (Par17 [3]; peptide 5 mM) | Combined chemical shift perturbation of full length Par17, 115M (Par17 [3]; peptide 5 mM) | Combined chemical shift perturbation of full length Par17, 116V (Par17 [3]; peptide 5 mM) | Combined chemical shift perturbation of full length Par17, 119F (Par17 [3]; peptide 5 mM) | Combined chemical shift perturbation of full length Par17, 113G (Par17 [3]; peptide 1,5 mM) | Combined chemical shift perturbation of full length Par17, 115M (Par17 [3]; peptide 1,5 mM) | Combined chemical shift perturbation of full length Par17, 116V (Par17 [3]; peptide 1,5 mM) | Combined chemical shift perturbation of full length Par17, 119F (Par17 [3]; peptide 1,5 mM) | also measured
1 | C[C@H](NC(=O)CCC(=O)O)C(=O)N[C@@H](CCC(=O)O)C(=O)N1CCC[C@H]1C(=O)N[C@@H](Cc1ccccc1)C(=O)Nc1ccc([N+](=O)[O-])cc1 [Glu, Suc–Ala–Glu–Pro–Phe–pNa] (Suc-AEPF-pNA) | <0.01 ± 0.029 | 0.267 ± 0.011 | 0.114 ± 0.074 | 0,17998 ppm | 0,13595 ppm | 0,27245 ppm | 0,18213 ppm |  |  |  |  |  |  |  |  |  |  |  | Combined chemical shift perturbation of full length Par17, 113G (Par17 [3]; peptide 0,2 mM): 0,02117 ppm; Combined chemical shift perturbation of full length Par17, 115M (Par17 [3]; peptide 0,2 mM): 0,01409 ppm; Combined chemical shift perturbation of full length Par17, 116V (Par17 [3]; peptide 0,2 mM): 0,03056 ppm; Combined chemical shift perturbation of full length Par17, 119F (Par17 [3]; peptide 0,2 mM): 0,02147 ppm; Combined chemical shift perturbation of full length Par17, 113G (Par17 [3]; peptide 1 mM): 0,08535 ppm; Combined chemical shift perturbation of full length Par17, 115M (Par17 [3]; peptide 1 mM): 0,06465 ppm; Combined chemical shift perturbation of full length Par17, 116V (Par17 [3]; peptide 1 mM): 0,12599 ppm; Combined chemical shift perturbation of full length Par17, 119F (Par17 [3]; peptide 1 mM): 0,0896 ppm; Combined chemical shift perturbation of full length Par17, 113G (Par17 [3]; peptide 2 mM): 0,14414 ppm; Combined chemical shift perturbation of full length Par17, 115M (Par17 [3]; peptide 2 mM): 0,10754 ppm; Combined chemical shift perturbation of full length Par17, 116V (Par17 [3]; peptide 2 mM): 0,21191 ppm; Combined chemical shift perturbation of full length Par17, 119F (Par17 [3]; peptide 2 mM): 0,14351 ppm; Combined chemical shift perturbation of full length Par17, 113G (Par17 [3]; peptide 4 mM): 0,21636 ppm; Combined chemical shift perturbation of full length Par17, 115M (Par17 [3]; peptide 4 mM): 0,16135 ppm; Combined chemical shift perturbation of full length Par17, 116V (Par17 [3]; peptide 4 mM): 0,32999 ppm; Combined chemical shift perturbation of full length Par17, 119F (Par17 [3]; peptide 4 mM): 0,22445 ppm
2 | CC(C)[C@H](NC(=O)[C@H](C)NC(=O)CCC(=O)O)C(=O)N1CCC[C@H]1C(=O)N[C@@H](Cc1ccccc1)C(=O)Nc1ccc([N+](=O)[O-])cc1 [Val, Suc‐Ala‐Val‐Pro‐Phe‐pNa] (Suc-AVPF-pNA) | 0.011 ± 0.005 | 0.408 ± 0.432 | 0.289 ± 0.166 | 0,157 ppm | 0,084 ppm | 0,326 ppm | 0,125 ppm | 0,024 ppm | 0,049 ppm | 0,022 ppm | 0,221 ppm | 0,11 ppm | 0,454 ppm | 0,167 ppm | 0,099 ppm | 0,055 ppm | 0,201 ppm | 0,08 ppm | Combined chemical shift perturbation of full length Par17, 115M (Par17 [3]; peptide 0,35 mM): 0,015 ppm
3 | C[C@H](NC(=O)CCC(=O)O)C(=O)NCC(=O)N1CCC[C@H]1C(=O)N[C@@H](Cc1ccccc1)C(=O)Nc1ccc([N+](=O)[O-])cc1 [Gly, Suc‐Ala‐Gly‐Pro‐Phe‐pNa] (Suc-AGPF-pNA) | <0.01 ± 0.029 | 0.390 ± 0.457 | 0.275 ± 0.214 | 0,116 ppm | 0,06 ppm | 0,302 ppm | 0,084 ppm | 0,014 ppm | 0,038 ppm | 0,012 ppm | 0,157 ppm | 0,081 ppm | 0,412 ppm | 0,113 ppm | 0,066 ppm | 0,035 ppm | 0,173 ppm | 0,05 ppm | 
4 | Suc-Ala-Ser-Pro-Phe-pNa [model substrate peptide, Xaa = Ser] | <0.01 ± 0.098 | 0.332 ± 0.054 | 0.327 ± 0.273 |  |  |  |  |  |  |  |  |  |  |  |  |  |  |  | kcat/KM, Par17 (Par17 [1]; [4]): <0.1 M^-1·s^-1 · 10^3; kcat/KM, Par14 (Par17Δ1-25) (Par14 (Par17Δ1-25); [4]): 2.7 M^-1·s^-1 · 10^3; kcat/KM, PPIase domain (Par17Δ1-60) [2, 4]: 2.7 M^-1·s^-1 · 10^3
